Measured values as given in ChEMBL document CHEMBL5120922, “Discovery, Optimization, and Evaluation of Potent and Selective PI3Kδ-γ Dual Inhibitors for the Treatment of B-cell Malignancies” (J Med Chem, 2022).
Activity calls are given as the source filed them. The rule behind the calls is not given here.

Experiments:
[1] = biological target: Phosphatidylinositol 4,5-bisphosphate 3-kinase catalytic subunit alpha isoform (Homo sapiens, UniProt P42336); assay: Inhibition of N-terminal His6-tagged recombinant full length human PI3Kalpha expressed in baculovirus infected Sf21 insect cells incubated for 30 mins by HTRF assay
Sequence of Phosphatidylinositol 4,5-bisphosphate 3-kinase catalytic subunit alpha isoform (P42336 whole entry, canonical isoform): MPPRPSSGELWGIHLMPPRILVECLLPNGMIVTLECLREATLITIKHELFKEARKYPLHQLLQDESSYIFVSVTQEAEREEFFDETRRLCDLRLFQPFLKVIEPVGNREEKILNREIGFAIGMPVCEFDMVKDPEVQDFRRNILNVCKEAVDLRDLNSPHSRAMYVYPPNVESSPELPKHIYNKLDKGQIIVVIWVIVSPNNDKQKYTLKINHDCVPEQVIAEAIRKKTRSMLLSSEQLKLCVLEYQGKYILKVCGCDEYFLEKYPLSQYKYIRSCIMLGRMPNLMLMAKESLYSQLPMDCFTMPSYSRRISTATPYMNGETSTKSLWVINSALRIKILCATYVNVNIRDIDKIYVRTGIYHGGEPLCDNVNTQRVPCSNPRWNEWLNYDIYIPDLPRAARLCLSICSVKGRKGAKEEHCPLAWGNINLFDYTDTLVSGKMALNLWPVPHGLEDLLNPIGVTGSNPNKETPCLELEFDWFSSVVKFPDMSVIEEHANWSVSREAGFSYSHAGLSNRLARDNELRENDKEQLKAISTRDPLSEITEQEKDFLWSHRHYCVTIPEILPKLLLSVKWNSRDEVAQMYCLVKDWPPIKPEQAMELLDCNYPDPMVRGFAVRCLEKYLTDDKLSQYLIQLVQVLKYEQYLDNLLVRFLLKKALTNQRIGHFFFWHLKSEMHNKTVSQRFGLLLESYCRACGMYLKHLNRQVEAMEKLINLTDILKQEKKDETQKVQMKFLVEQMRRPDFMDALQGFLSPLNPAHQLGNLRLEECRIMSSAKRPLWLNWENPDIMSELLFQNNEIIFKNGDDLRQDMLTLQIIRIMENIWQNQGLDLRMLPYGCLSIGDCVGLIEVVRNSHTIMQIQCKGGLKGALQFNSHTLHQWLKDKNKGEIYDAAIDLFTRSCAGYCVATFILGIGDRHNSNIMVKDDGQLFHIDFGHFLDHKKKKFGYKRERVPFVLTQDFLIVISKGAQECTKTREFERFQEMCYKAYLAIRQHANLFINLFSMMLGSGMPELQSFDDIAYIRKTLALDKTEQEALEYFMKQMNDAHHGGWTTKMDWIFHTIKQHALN

[2] = biological target: Phosphatidylinositol 4,5-bisphosphate 3-kinase catalytic subunit gamma isoform (Homo sapiens, UniProt P48736); assay: Inhibition of N-terminal His6-tagged recombinant full length human PI3Kgamma expressed in baculovirus infected Sf21 insect cells incubated for 30 mins by HTRF assay
Sequence of Phosphatidylinositol 4,5-bisphosphate 3-kinase catalytic subunit gamma isoform (P48736 whole entry, canonical isoform): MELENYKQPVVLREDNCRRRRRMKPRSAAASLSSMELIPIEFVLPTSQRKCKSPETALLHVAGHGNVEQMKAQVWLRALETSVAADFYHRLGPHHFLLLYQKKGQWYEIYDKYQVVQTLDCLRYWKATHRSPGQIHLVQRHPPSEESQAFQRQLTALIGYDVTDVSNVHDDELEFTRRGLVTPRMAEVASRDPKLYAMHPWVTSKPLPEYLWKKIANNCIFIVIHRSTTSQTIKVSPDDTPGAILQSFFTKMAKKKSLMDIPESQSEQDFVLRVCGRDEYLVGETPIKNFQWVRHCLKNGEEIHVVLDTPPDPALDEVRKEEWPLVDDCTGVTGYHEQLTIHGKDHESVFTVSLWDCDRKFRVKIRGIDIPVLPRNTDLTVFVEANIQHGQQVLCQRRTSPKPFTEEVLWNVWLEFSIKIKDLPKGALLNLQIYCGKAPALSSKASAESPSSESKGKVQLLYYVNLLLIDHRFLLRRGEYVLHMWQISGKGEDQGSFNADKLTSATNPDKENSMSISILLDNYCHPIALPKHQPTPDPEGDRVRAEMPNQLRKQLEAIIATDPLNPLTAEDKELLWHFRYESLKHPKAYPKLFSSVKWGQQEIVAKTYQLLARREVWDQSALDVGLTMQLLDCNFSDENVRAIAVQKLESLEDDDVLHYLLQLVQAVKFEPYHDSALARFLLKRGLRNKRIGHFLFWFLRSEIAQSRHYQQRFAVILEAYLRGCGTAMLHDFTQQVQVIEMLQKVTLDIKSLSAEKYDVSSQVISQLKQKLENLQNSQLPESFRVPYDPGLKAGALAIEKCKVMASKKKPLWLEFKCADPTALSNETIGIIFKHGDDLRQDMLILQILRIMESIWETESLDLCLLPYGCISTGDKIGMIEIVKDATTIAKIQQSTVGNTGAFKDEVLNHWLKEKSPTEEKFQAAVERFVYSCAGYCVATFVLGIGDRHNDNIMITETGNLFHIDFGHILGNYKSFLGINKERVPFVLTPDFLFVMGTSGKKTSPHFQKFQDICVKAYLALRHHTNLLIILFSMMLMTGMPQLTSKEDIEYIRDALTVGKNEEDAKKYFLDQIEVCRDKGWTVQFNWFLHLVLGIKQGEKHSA

[3] = tested on: DOHH-2; assay: Induction of cell cycle arrest in human DOHH-2 cells assessed as accumulation of cells at G0/G1 phase at 0.5 uM incubated for 24 hrs in presence of ibrutinib by PI staining based flow cytometry analysis (reference value: 23.47 %); type: functional
[4] = Clearance in Sprague-Dawley rat at 5 mg/kg, iv measured upto 24 hrs by LC-MS/MS analysis; type: ADME, organism-based; settings: in vivo
[5] = Tmax in Sprague-Dawley rat at 2 mg/kg, iv measured upto 24 hrs by LC-MS/MS analysis; type: ADME, organism-based; settings: in vivo
[6] = tested on: SU-DHL-6; assay: Induction of cell cycle arrest in human SU-DHL-6 cells assessed as accumulation of cells at G2/M phase at 0.5 uM incubated for 24 hrs by PI staining based FACScan flow cytometry analysis (reference value: 20.21 %); type: functional
[7] = biological target: Phosphatidylinositol 4,5-bisphosphate 3-kinase catalytic subunit beta isoform (Homo sapiens, UniProt P42338); assay: Inhibition of N-terminal His6-tagged recombinant full length human PI3Kbeta expressed in baculovirus infected Sf21 insect cells incubated for 30 mins by HTRF assay
Sequence of Phosphatidylinositol 4,5-bisphosphate 3-kinase catalytic subunit beta isoform (P42338 whole entry, canonical isoform): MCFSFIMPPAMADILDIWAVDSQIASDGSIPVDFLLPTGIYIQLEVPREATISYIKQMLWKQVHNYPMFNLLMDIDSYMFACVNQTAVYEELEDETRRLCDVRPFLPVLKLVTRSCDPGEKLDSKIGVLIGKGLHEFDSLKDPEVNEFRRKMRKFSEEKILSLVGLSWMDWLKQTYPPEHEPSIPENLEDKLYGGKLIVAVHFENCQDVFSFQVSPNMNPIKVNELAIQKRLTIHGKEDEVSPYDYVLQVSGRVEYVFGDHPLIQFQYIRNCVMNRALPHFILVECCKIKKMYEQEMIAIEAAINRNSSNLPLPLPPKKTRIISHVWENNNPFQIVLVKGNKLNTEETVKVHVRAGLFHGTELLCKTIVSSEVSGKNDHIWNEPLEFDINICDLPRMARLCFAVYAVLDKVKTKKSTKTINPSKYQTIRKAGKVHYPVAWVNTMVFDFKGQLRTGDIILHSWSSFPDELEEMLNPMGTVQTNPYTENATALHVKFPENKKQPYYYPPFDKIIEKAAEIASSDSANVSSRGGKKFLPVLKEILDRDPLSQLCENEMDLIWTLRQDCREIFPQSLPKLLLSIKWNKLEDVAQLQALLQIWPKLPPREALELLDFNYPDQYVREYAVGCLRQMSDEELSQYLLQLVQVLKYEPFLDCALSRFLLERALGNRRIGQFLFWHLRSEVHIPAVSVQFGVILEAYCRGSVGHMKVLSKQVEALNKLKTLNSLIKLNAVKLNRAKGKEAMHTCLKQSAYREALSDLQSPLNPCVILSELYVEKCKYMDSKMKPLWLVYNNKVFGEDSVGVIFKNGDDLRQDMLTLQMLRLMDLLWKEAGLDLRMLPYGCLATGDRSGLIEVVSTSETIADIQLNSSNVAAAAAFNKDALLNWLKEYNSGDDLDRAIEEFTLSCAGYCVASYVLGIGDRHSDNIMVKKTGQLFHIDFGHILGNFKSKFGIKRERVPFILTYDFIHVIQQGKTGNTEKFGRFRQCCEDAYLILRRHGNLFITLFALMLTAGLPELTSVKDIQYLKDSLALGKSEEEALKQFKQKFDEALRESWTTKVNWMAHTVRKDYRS

[8] = tested on: SU-DHL-6; assay: Induction of apoptosis in human SU-DHL-6 cells assessed as necrotic cells at 1.5 uM incubated for 48 hrs in presence of ibrutinib by annexin V-FITC and PI staining based flow cytometry analysis (reference value: 0.32%); type: functional
[9] = Binding affinity to N-terminal His6-tagged recombinant full length human PI3K expressed in baculovirus infected Sf21 insect cells at 10 uM in presence of [gamma-33ATP] by scintillation counting based radiometry assay relative to control

IC50 [1]: 794 µM
IC50 [2]: 16 µM
clearance [4]: 12.5 mL/min/kg
Tmax [5]: 1.2 h
IC50 [7]: 84 µM
SMILES: C[C@H]1CC[C@@H](c2nc3cccc(Cl)c3c(=O)n2-c2cccnc2)N1c1nc(N)nc(N)c1C#N
Activity [3]: 53.16%
Activity [6]: 10.01%
Activity [8]: 0.25%
Activity [9]: Active
